This note sets out measurements from PubChem BioAssay (NCI).

“And” between values parts separate entries of the source, which are not always exact repeats. Identical values can stand only once.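 Compound exposure: 48 hours, 5 concentrations, 96-well plates. GI50: concentration for 50% inhibition of growth. TGI: concentration producing complete growth inhibition.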 Bounds are passed on as bounds.

Some test systems named below: A549 NSCLC; BT-549 breast; CCRF-CEM leukemia; COLO 205 colon; EKVX NSCLC; HS 578T breast; K-562 leukemia; MALME-3M melanoma; OVCAR-8 ovarian; PC-3 prostate; U251 CNS.
Assay in all cases: NCI anticancer screen, dose series, 48 h

With `Cc1nc2c(o1)C(=O)c1ccccc1/C2=N/c1ccccn1`, the TGI in the assay on A549 NSCLC is > 100 µM; in the assay with BT-549 breast, 32.2 µM; in the assay on CCRF-CEM leukemia, 65.7 µM; with COLO 205 colon, > 100 µM; in the assay with EKVX NSCLC, 41.6 µM; in the assay on HS 578T breast, 41.1 µM. The TGI with K-562 leukemia is > 100 µM; with MALME-3M melanoma, 25 µM; in the assay on OVCAR-8 ovarian it was 31.1 µM; in the assay on PC-3 prostate, > 100 µM; with U251 CNS it was 30.4 µM.
For the compound `O=C(Oc1ccccc1)c1cc2cc(CCl)ccc2oc1=O`, the TGI in the assay on A549 NSCLC is > 100 µM; in the assay on BT-549 breast, > 100 µM; with CCRF-CEM leukemia, > 100 µM; in the assay on COLO 205 colon it was 52.9 µM; in the assay with EKVX NSCLC it was 38.5 µM; in the assay with HS 578T breast, 52.8 µM. Moreover, the TGI with K-562 leukemia was > 100 µM; in the assay with MALME-3M melanoma, 8.11 µM; with OVCAR-8 ovarian it was > 100 µM; in the assay with PC-3 prostate it was 29.2 µM; in the assay with U251 CNS, > 100 µM.
Take `CCc1n[nH]c(=O)n1N1C(=O)C2CC=CCC2C1=O` (stereo unspecified): the TGI with A549 NSCLC, with BT-549 breast, in the assay on CCRF-CEM leukemia, in the assay on COLO 205 colon, in the assay on EKVX NSCLC and in the assay with HS 578T breast was > 100 µM in each case. Further, the TGI with K-562 leukemia, in the assay with MALME-3M melanoma, in the assay on OVCAR-8 ovarian, with PC-3 prostate and in the assay with U251 CNS was > 100 µM each time.
Take `CC(C)OP(=O)(CN(C)/C(F)=N\C(F)(F)F)OC(C)C`: the TGI in the assay on A549 NSCLC, in the assay on BT-549 breast, with CCRF-CEM leukemia, in the assay on COLO 205 colon, with EKVX NSCLC and in the assay on HS 578T breast was > 100 µM throughout. Moreover, the TGI with K-562 leukemia, in the assay with MALME-3M melanoma, in the assay with OVCAR-8 ovarian, in the assay on PC-3 prostate and with U251 CNS was > 100 µM in each case.
As for `COc1cc([C@@H]2c3cc4c(cc3[C@@H](NCCNCCO)[C@H]3COC(=O)[C@H]23)OCO4)cc(OC)c1O`, the TGI in the assay on A549 NSCLC was > 100 µM; in the assay with BT-549 breast it was 7.03 µM and 5.49 µM; with CCRF-CEM leukemia, 0.567 µM and 0.695 µM; in the assay on COLO 205 colon, 24 µM and 24.5 µM; in the assay with EKVX NSCLC it was > 100 µM; in the assay with HS 578T breast, 19.2 µM and 5.4 µM. For the same compound, the TGI in the assay on K-562 leukemia is > 100 µM; in the assay on MALME-3M melanoma it was 24.4 µM and 10.8 µM; in the assay on OVCAR-8 ovarian, > 22.4 µM and 20.8 µM; in the assay with PC-3 prostate, > 100 µM; in the assay with U251 CNS it was 5.35 µM. The GI50 in the assay on CCRF-CEM leukemia was 0.123 µM; with EKVX NSCLC, 5.36 µM and 13 µM; in the assay with K-562 leukemia, 1.45 µM; with MALME-3M melanoma, 2.72 µM and 1.2 µM.
Regarding `COc1cccc2cc(C(N)=O)c(=N)oc12`, the TGI with A549 NSCLC is > 100 µM; in the assay with BT-549 breast it was > 100 µM; in the assay on CCRF-CEM leukemia it was > 100 µM; in the assay with COLO 205 colon it was > 100 µM; in the assay with EKVX NSCLC it was > 100 µM; in the assay with HS 578T breast, 97.5 µM. The TGI with K-562 leukemia is > 100 µM; in the assay on MALME-3M melanoma, 45.9 µM; with OVCAR-8 ovarian it was > 100 µM; in the assay on PC-3 prostate, > 100 µM; with U251 CNS, > 100 µM.
On to `CCCN1C(=O)CCC2=C1CCc1c2ccc(Cl)c1Cl`, for which the TGI with A549 NSCLC was > 100 µM; in the assay with BT-549 breast, > 100 µM; with CCRF-CEM leukemia it was > 100 µM; in the assay on COLO 205 colon it was > 100 µM; in the assay with EKVX NSCLC it was > 100 µM; in the assay with HS 578T breast, 22 µM. In addition, the TGI in the assay on K-562 leukemia, in the assay on MALME-3M melanoma, with OVCAR-8 ovarian, in the assay on PC-3 prostate and in the assay on U251 CNS was > 100 µM throughout.
With `O=C(CN1CCN(C(=O)OCc2ccccc2)CCN(CC(=O)N2CCCCC2)CCN(C(=O)OCc2ccccc2)CC1)N1CCCCC1`, the TGI with A549 NSCLC is > 53.5 µM; with BT-549 breast, > 50.5 µM; in the assay on CCRF-CEM leukemia it was > 49.8 µM; in the assay with COLO 205 colon it was 27.2 µM; with EKVX NSCLC it was > 56.7 µM; in the assay on HS 578T breast, 35.2 µM. Also, the TGI with K-562 leukemia worked out at 32.7 µM; in the assay on MALME-3M melanoma, 23.5 µM; in the assay on OVCAR-8 ovarian, 33.8 µM; in the assay with PC-3 prostate, 37.3 µM; in the assay with U251 CNS it was 34.4 µM.
As for `CCSC1=N/C(=C\c2ccccc2O)C(Nc2ccc(C)cc2)=N1`, the TGI with A549 NSCLC, in the assay with BT-549 breast, in the assay with CCRF-CEM leukemia, with COLO 205 colon, in the assay on EKVX NSCLC and in the assay on HS 578T breast was > 100 µM in each case. Besides, the TGI with K-562 leukemia, with MALME-3M melanoma, with OVCAR-8 ovarian, in the assay with PC-3 prostate and in the assay with U251 CNS was > 100 µM throughout.
Regarding `Cc1cc(N(CCC#N)CCC#N)ccc1/C(N=Nc1cccc([N+](=O)[O-])c1)=N/NC(=O)c1cc(Cl)ccc1O`, the TGI is > 100 µM in the assay on A549 NSCLC; 92.7 µM in the assay on BT-549 breast; 26.7 µM in the assay with CCRF-CEM leukemia; 38.8 µM with COLO 205 colon; 93.6 µM with EKVX NSCLC; > 100 µM in the assay with HS 578T breast. The TGI in the assay with K-562 leukemia, with MALME-3M melanoma, with OVCAR-8 ovarian, with PC-3 prostate and in the assay with U251 CNS was > 100 µM throughout.
Turning to `O=C1c2cc3ccccc3cc2C2(c3ccc(Cl)cc3)N[C@H]3CCCC[C@@H]3N12` (stereo partly specified), the TGI in the assay with A549 NSCLC was 36.3 µM; in the assay on BT-549 breast it was 36.9 µM; with CCRF-CEM leukemia it was > 100 µM; with COLO 205 colon, > 100 µM; in the assay with EKVX NSCLC, 26.8 µM; in the assay with HS 578T breast, 27.9 µM. The TGI is > 100 µM with K-562 leukemia; 36.8 µM in the assay with MALME-3M melanoma; 19.4 µM in the assay on OVCAR-8 ovarian; 42.6 µM in the assay on PC-3 prostate; 30.1 µM in the assay on U251 CNS.
Turning to `CC(=O)OCC1OC(n2c(N)c(C#N)c(-c3ccccc3)c(C#N)c2=S)C(OC(C)=O)C(OC(C)=O)C1OC(C)=O` (stereo unspecified), the TGI was > 100 µM in the assay with A549 NSCLC; > 100 µM with BT-549 breast; > 100 µM with CCRF-CEM leukemia; > 100 µM with COLO 205 colon; > 100 µM in the assay with EKVX NSCLC; 54.1 µM in the assay with HS 578T breast. The TGI was > 100 µM with K-562 leukemia; > 100 µM with MALME-3M melanoma; > 100 µM with OVCAR-8 ovarian; > 100 µM in the assay with PC-3 prostate; 59.1 µM in the assay on U251 CNS.
